Measurements as given in PubChem BioAssay (NCI).
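Protocol summary: plate cells (96-well), add compound at 5 concentrations, incubate 48 h, interpolate endpoints linearly. Abbreviation: GI50, concentration required for 50% inhibition of growth. TGI denotes the concentration required for complete inhibition of growth.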

Experiments:
Experiment in all cases: NCI tumour cell line growth inhibition, 48 h
A549 NSCLC = tested on: A549 NSCLC
NCI/ADR-RES ovarian = tested on: NCI/ADR-RES ovarian
SK-OV-3 ovarian = tested on: SK-OV-3 ovarian
MALME-3M melanoma = tested on: MALME-3M melanoma
786-0 renal = tested on: 786-0 renal
COLO 205 colon = tested on: COLO 205 colon
UACC-62 melanoma = tested on: UACC-62 melanoma
SK-MEL-5 melanoma = tested on: SK-MEL-5 melanoma
A498 renal = tested on: A498 renal
M14 melanoma = tested on: M14 melanoma
SF-539 CNS = tested on: SF-539 CNS
OVCAR-5 ovarian = tested on: OVCAR-5 ovarian
MDA-MB-231 breast = tested on: MDA-MB-231 breast
SNB-19 CNS = tested on: SNB-19 CNS
HT29 colon = tested on: HT29 colon
MCF7 breast = tested on: MCF7 breast
SR leukemia = tested on: SR leukemia
EKVX NSCLC = tested on: EKVX NSCLC
SF-268 CNS = tested on: SF-268 CNS
IGROV1 ovarian = tested on: IGROV1 ovarian
SNB-75 CNS = tested on: SNB-75 CNS
HCT-15 colon = tested on: HCT-15 colon
HCT-116 colon = tested on: HCT-116 colon
UACC-257 melanoma = tested on: UACC-257 melanoma
HCC-2998 colon = tested on: HCC-2998 colon
KM12 colon = tested on: KM12 colon
CCRF-CEM leukemia = tested on: CCRF-CEM leukemia
NCI-H23 lung = tested on: NCI-H23 lung
SW-620 colon = tested on: SW-620 colon
OVCAR-8 ovarian = tested on: OVCAR-8 ovarian
T-47D breast = tested on: T-47D breast
SK-MEL-28 melanoma = tested on: SK-MEL-28 melanoma
ACHN renal = tested on: ACHN renal
NCI-H226 lung = tested on: NCI-H226 lung
HS 578T breast = tested on: HS 578T breast
UO-31 renal = tested on: UO-31 renal
RPMI-8226 leukemia = tested on: RPMI-8226 leukemia
U251 CNS = tested on: U251 CNS
DU-145 prostate = tested on: DU-145 prostate
RXF 393 renal = tested on: RXF 393 renal
HL-60(TB) leukemia = tested on: HL-60(TB) leukemia
SF-295 CNS = tested on: SF-295 CNS
NCI-H460 lung = tested on: NCI-H460 lung
HOP-92 NSCLC = tested on: HOP-92 NSCLC
K-562 leukemia = tested on: K-562 leukemia
LOX IMVI melanoma = tested on: LOX IMVI melanoma
MDA-MB-435 = tested on: MDA-MB-435
SN12C renal = tested on: SN12C renal
TK-10 renal = tested on: TK-10 renal
HOP-62 NSCLC = tested on: HOP-62 NSCLC
SK-MEL-2 melanoma = tested on: SK-MEL-2 melanoma
NCI-H522 lung = tested on: NCI-H522 lung
MOLT-4 leukemia = tested on: MOLT-4 leukemia
OVCAR-3 ovarian = tested on: OVCAR-3 ovarian
CAKI-1 renal = tested on: CAKI-1 renal
PC-3 prostate = tested on: PC-3 prostate
BT-549 breast = tested on: BT-549 breast
OVCAR-4 ovarian = tested on: OVCAR-4 ovarian

## C#CCN(CC#C)C(=O)C(=O)c1c[nH]c2ccc(OC)cc12
A549 NSCLC
  TGI: 68.5 µM
NCI/ADR-RES ovarian
  TGI: 57.7 µM
SK-OV-3 ovarian
  TGI: 36.5 µM
MALME-3M melanoma
  TGI: 32.7 µM
786-0 renal
  TGI: 31 µM
COLO 205 colon
  TGI: 60 µM
UACC-62 melanoma
  TGI: 42.7 µM
SK-MEL-5 melanoma
  TGI: 31.1 µM
A498 renal
  TGI: 29.5 µM
M14 melanoma
  TGI: 34.7 µM
SF-539 CNS
  TGI: 29.2 µM
OVCAR-5 ovarian
  TGI: 48 µM
MDA-MB-231 breast
  TGI: 31 µM
SNB-19 CNS
  TGI: 36.1 µM
HT29 colon
  TGI: 25.3 µM
MCF7 breast
  TGI: 34.7 µM
SR leukemia
  TGI: 23.2 µM
EKVX NSCLC
  TGI: > 100 µM
SF-268 CNS
  TGI: > 100 µM
IGROV1 ovarian
  TGI: > 100 µM
SNB-75 CNS
  TGI: 55.1 µM
HCT-15 colon
  TGI: 29.5 µM
HCT-116 colon
  TGI: 36.1 µM
UACC-257 melanoma
  TGI: 34 µM
HCC-2998 colon
  TGI: 31 µM
KM12 colon
  TGI: 30.6 µM
CCRF-CEM leukemia
  TGI: 43.1 µM
NCI-H23 lung
  TGI: 50.5 µM
SW-620 colon
  TGI: 41.2 µM
OVCAR-8 ovarian
  TGI: 60.5 µM
T-47D breast
  TGI: 83.5 µM
SK-MEL-28 melanoma
  TGI: 31 µM
ACHN renal
  TGI: 65.1 µM
NCI-H226 lung
  TGI: 38.7 µM
HS 578T breast
  TGI: 37.6 µM
UO-31 renal
  TGI: 21.1 µM
RPMI-8226 leukemia
  TGI: 22.4 µM
U251 CNS
  TGI: 27.6 µM
DU-145 prostate
  TGI: > 100 µM
RXF 393 renal
  TGI: 29.8 µM
HL-60(TB) leukemia
  TGI: 20.5 µM
SF-295 CNS
  TGI: 32.5 µM
NCI-H460 lung
  TGI: 29.7 µM
HOP-92 NSCLC
  TGI: 33.2 µM
K-562 leukemia
  TGI: 33.9 µM
LOX IMVI melanoma
  TGI: 33.6 µM
MDA-MB-435
  TGI: 35.4 µM
SN12C renal
  TGI: 30 µM
TK-10 renal
  TGI: 34.3 µM
HOP-62 NSCLC
  TGI: 31.3 µM

## C[C@H]1[C@H](C)CC[C@]2(C(=O)OCCOCCOCC[P+](c3ccccc3)(c3ccccc3)c3ccccc3)CC[C@]3(C)C(=CC[C@@H]4[C@@]5(C)CC[C@H](OC(=O)C(Cl)Cl)C(C)(C)[C@@H]5CC[C@]43C)[C@H]12
CCRF-CEM leukemia
  GI50: 0.227 µM
  TGI: 1.61 µM
SW-620 colon
  GI50: 0.234 µM
  TGI: 0.955 µM
ACHN renal
  GI50: 0.54 µM
  TGI: 1.26 µM
HS 578T breast
  GI50: 0.202 µM
  TGI: 3.2 µM
DU-145 prostate
  GI50: 0.301 µM
  TGI: 0.941 µM
HL-60(TB) leukemia
  GI50: 0.161 µM
  TGI: 0.804 µM

## Cn1cc(C2=C(c3cn(C)c4cc(C(N)=O)ccc34)C(=O)NC2=O)c2ccccc21
A549 NSCLC
  GI50: 1.66 µM
  TGI: > 25 µM
NCI/ADR-RES ovarian
  GI50: 1.16 µM
  TGI: > 25 µM
SK-OV-3 ovarian
  GI50: 1.44 µM
  TGI: > 22.2 µM
MALME-3M melanoma
  GI50: 4.2 µM
  TGI: > 25 µM
786-0 renal
  GI50: 1.81 µM
  TGI: 13.7 µM
COLO 205 colon
  GI50: 0.914 µM
  TGI: 6.08 µM
UACC-62 melanoma
  GI50: 2.31 µM
  TGI: > 16.8 µM
SK-MEL-5 melanoma
  GI50: 0.751 µM
  TGI: 3.39 µM
A498 renal
  GI50: 0.47 µM
  TGI: 2.06 µM
M14 melanoma
  GI50: 1.08 µM
  TGI: > 25 µM
SF-539 CNS
  GI50: 0.791 µM
  TGI: 4.24 µM
SK-MEL-2 melanoma
  GI50: 1.44 µM
  TGI: > 16.1 µM
OVCAR-5 ovarian
  GI50: 11.1 µM
  TGI: > 25 µM
MDA-MB-231 breast
  GI50: 2.88 µM
  TGI: 19.9 µM
SNB-19 CNS
  GI50: 2.15 µM
  TGI: > 25 µM
HT29 colon
  GI50: 0.924 µM
  TGI: > 13.5 µM
MCF7 breast
  GI50: 0.949 µM
  TGI: > 25 µM
SR leukemia
  GI50: 0.656 µM
  TGI: > 22.8 µM
SF-268 CNS
  GI50: 1.74 µM
  TGI: > 18.3 µM
IGROV1 ovarian
  GI50: 2.48 µM
  TGI: > 19.7 µM
NCI-H522 lung
  GI50: 0.471 µM
  TGI: 3.2 µM
SNB-75 CNS
  GI50: 0.447 µM
  TGI: > 7.9 µM
HCT-15 colon
  GI50: 1.19 µM
  TGI: > 25 µM
HCT-116 colon
  GI50: 1.08 µM
  TGI: > 21.6 µM
MOLT-4 leukemia
  GI50: 1.83 µM
  TGI: > 20.9 µM
UACC-257 melanoma
  GI50: 3.66 µM
  TGI: > 25 µM
HCC-2998 colon
  GI50: 5.17 µM
  TGI: > 25 µM
OVCAR-3 ovarian
  GI50: 0.608 µM
  TGI: 1.57 µM
KM12 colon
  GI50: 1.02 µM
  TGI: 6.17 µM
CCRF-CEM leukemia
  GI50: 0.951 µM
  TGI: > 25 µM
NCI-H23 lung
  GI50: 1.35 µM
  TGI: > 25 µM
SW-620 colon
  GI50: 1.27 µM
  TGI: > 25 µM
OVCAR-8 ovarian
  GI50: 1.67 µM
  TGI: > 25 µM
T-47D breast
  GI50: 1.98 µM
  TGI: > 25 µM
SK-MEL-28 melanoma
  GI50: 2.66 µM
  TGI: > 25 µM
ACHN renal
  GI50: 2.64 µM
  TGI: > 25 µM
NCI-H226 lung
  GI50: 4.29 µM
  TGI: > 21.7 µM
HS 578T breast
  GI50: 0.687 µM
  TGI: 4.02 µM
UO-31 renal
  GI50: 1.81 µM
  TGI: > 20.1 µM
RPMI-8226 leukemia
  GI50: 1.65 µM
  TGI: > 20.8 µM
U251 CNS
  GI50: 1.04 µM
  TGI: > 25 µM
CAKI-1 renal
  GI50: 0.831 µM
  TGI: 10.7 µM
DU-145 prostate
  GI50: 0.987 µM
  TGI: > 10.2 µM
PC-3 prostate
  GI50: 0.909 µM
  TGI: > 25 µM
RXF 393 renal
  GI50: 0.559 µM
  TGI: 1.95 µM
HL-60(TB) leukemia
  GI50: 0.769 µM
  TGI: 3.48 µM
BT-549 breast
  GI50: 7.92 µM
  TGI: > 25 µM
SF-295 CNS
  GI50: 0.987 µM
  TGI: > 25 µM
OVCAR-4 ovarian
  GI50: 4.91 µM
  TGI: > 25 µM
NCI-H460 lung
  GI50: 0.854 µM
  TGI: > 9.8 µM
HOP-92 NSCLC
  GI50: 2.15 µM
  TGI: 24.5 µM
K-562 leukemia
  GI50: 0.857 µM
  TGI: > 25 µM
LOX IMVI melanoma
  GI50: 1.76 µM
  TGI: > 25 µM
SN12C renal
  GI50: 1.91 µM
  TGI: 13.8 µM
TK-10 renal
  GI50: 3.76 µM
  TGI: > 21 µM
HOP-62 NSCLC
  GI50: 1.67 µM
  TGI: > 25 µM

## C=Cc1c(C)c2cc3nc(cc4[nH]c(cc5nc(cc1[nH]2)C(C)=C5CCC(=O)O)c(CCC(=O)OC)c4C)[C@@]1(C)C3=CC=C(C(=O)OC)[C@H]1C(=O)OC
SK-OV-3 ovarian
  GI50: 1.85 µM
  TGI: 3.54 µM
UACC-62 melanoma
  GI50: 1.37 µM
  TGI: 2.8 µM
SK-MEL-5 melanoma
  GI50: 1.7 µM
  TGI: 3.15 µM
A498 renal
  GI50: 1.19 µM
  TGI: 2.52 µM
SF-539 CNS
  GI50: 1.4 µM
  TGI: 2.7 µM
OVCAR-5 ovarian
  GI50: 1.59 µM
  TGI: 3.07 µM
EKVX NSCLC
  GI50: 2.1 µM
  TGI: 5.38 µM
SNB-75 CNS
  GI50: 0.846 µM
  TGI: 2.18 µM
MOLT-4 leukemia
  GI50: 0.388 µM
  TGI: 1.89 µM
CCRF-CEM leukemia
  GI50: 0.829 µM
  TGI: 3.68 µM
T-47D breast
  GI50: 1.48 µM
  TGI: 4.53 µM
SK-MEL-28 melanoma
  GI50: 1.51 µM
  TGI: 3 µM
ACHN renal
  GI50: 1.34 µM
  TGI: 2.62 µM
RPMI-8226 leukemia
  GI50: 1.27 µM
  TGI: > 100 µM
CAKI-1 renal
  GI50: 1.17 µM
  TGI: 2.39 µM
PC-3 prostate
  GI50: 1.43 µM
  TGI: 6.69 µM
RXF 393 renal
  GI50: 1.97 µM
  TGI: 4.47 µM
HL-60(TB) leukemia
  GI50: 2.09 µM
  TGI: 5.7 µM
BT-549 breast
  GI50: 1.24 µM
  TGI: 2.8 µM
MDA-MB-435
  GI50: 0.357 µM
  TGI: 1.34 µM
